Measured values as given in patent publication US20190223483A1, “SENSORY MODIFIER COMPOUNDS” (CARGILL, INCORPORATED, priority 2017, published 2019).
Values joined by “and” are separate entries in the source; they are usually repeats but may differ in a detail not shown here. Identical values can stand only once.

How the values were obtained:
Format in all cases: in vivo
[1] = Roundtable assessment of mouthfeel (scale 0 to 2)
Protocol: For other sweetness attributes, the solutions were tested by a panel of at least four individuals that are highly-trained in tasting steviol glycoside solutions. The highly-trained panelists used a roundtable methodology to assess each sweetness attribute. To test each solution, the highly-trained panelists dispensed approximately 2 mL of each solution into their own mouths by transfer pipet, dispersed the solution by moving their tongues, and recorded a value for the particular sweetness attribute being tested. Between tasting solutions, the panelists were able to cleanse their palates with water. For each sweetness attribute, the panelist agreed on a descriptive scale with relative intensities assigned for each sweetness attribute and then recorded the values for each sweetness attribute against this. For example, this roundtable assessment of sweetness linger assigned a scale of 0 to 6 with a score of 0 indicating no sweetness linger and a score of 6 indicating extreme sweetness linger. Roundtable assessment of sweetness linger assigned a scale of 0 to 6 with a score of 0 indicating no sweetness linger and a score of 6 indicating extreme sweetness linger (0=none, 1=trace, 2=slight, 3=moderate, 4=definite, 5=strong, 6=extreme). Roundtable assessment of rounded assigned a scale of 0 to 3 with a score of 0 indicating spikey and a score of 3 indicating desirable rounded (0=none, 1=mostly spikey, some rounded, 2=mostly rounded, some spikey, 3=rounded). Roundtable assessment of mouthfeel assigned a scale of 0 to 2 with a score of 0 indicating water and a score of 2 indicating syrupy (0=water, 1=sucrosey, 2=syrupy). Roundtable assessment of bitterness assigned a scale of 0 to 6 with a score of 0 indicating no bitterness and a score of 6 indicating extreme sweetness linger (0=none, 1=trace, 2=slight, 3=moderate, 4=definite, 5=strong, 6=extreme). Roundtable assessment of off tastes assigned a scale of 0 to 6 with a score of 0 indicating no bitterness and a score of 6 indicating extreme off tastes (0=none, 1=trace, 2=slight, 3=moderate, 4=definite, 5=strong, 6=extreme).
A series of assays were carried out to characterize a sweetness quality of mouthfeel (0=water, 1=sucrosey, 2=syrupy) of steviol glycoside compositions with sensory modifier compound using the roundtable methodology described in Example 1. […] Solutions of steviol glycosides and sensory modifier compound were prepared at increasing ratios of sensory modifier to steviol glycoside by weight. The steviol glycosides were RebA (4 glycoside groups), RebD (5 glycoside groups), RebM (6 glycoside groups), and OPS1-5(7 glycoside groups) and the sensory modifier compound was monocaffeoylquinic and dicaffeoylquinic acids prepared from yerba mate. The concentration of steviol glycosides was 700 ppm in each solution. […]

[2] = Sweetness intensity (SEV) by trained panel against 1%-14% sucrose standards; settings: for sweetness intensity plateau (SEV): Reb M alone, at about 800 ppm; for sweetness intensity (SEV): about 1400 ppm Reb M with about 1400 ppm sensory modifier
Protocol: In some aspects, the amount of sensory modifier compound effective to increase sweetness intensity can be determined by panel testing with trained panelists. For example, […] can be determined by the following test: Solutions were prepared by dissolving steviol glycosides and sensory modifier compounds into reverse osmosis water at the indicated concentrations and/or ratios. Solutions were tested by a panel of at least four individuals that are highly-trained in tasting steviol glycoside solutions. The highly-trained panelists were trained against a standard range of 1%, 2%, 3%, 4%, 5%, 6%, 7%, 8%, 9%, 10%, 11%, 12%, 13%, and 14% sucrose solutions corresponding to 1, 2, 3, 4, 5, 6, 7, 8, 9, 10, 11, 12, 13, and 14 SEV. To test each solution, the highly-trained panelists dispensed approximately 2 mL of each solution into their own mouths by transfer pipet, dispersed the solution by moving their tongues, and recorded an SEV value for each solution based on comparison to the 1%, 2%, 3%, 4%, 5%, 6%, 7%, 8%, 9%, 10%, 11%, 12%, 13%, and 14% sucrose solutions. Between tasting solutions, the panelists were able to cleanse their palates with water. […] For sweetness intensity, the panelists focused on, and only recorded, the sweetness intensity in SEV that they tasted while disregarding other attributes of the solution. At the highest concentrations of steviol glycoside and sensory modifier compound, the panelists found other attributes to be highly noticeable, but recorded the isolated sweetness intensity for each solution despite these other attributes. Exemplary tests are described below in Example 1.
All solutions were prepared by dissolving steviol glycosides and sensory modifier compounds into reverse osmosis water at the indicated concentrations and/or ratios.
For sweetness intensity, the solutions were tested by a panel of at least four individuals that are highly-trained in tasting steviol glycoside solutions. The highly-trained panelists were trained against a standard range of 1%, 2%, 3%, 4%, 5%, 6%, 7%, 8%, 9%, 10%, 11%, 12%, 13%, and 14% sucrose solutions corresponding to 1, 2, 3, 4, 5, 6, 7, 8, 9, 10, 11, 12, 13, and 14 SEV. To test each solution, the highly-trained panelists dispensed approximately 2 mL of each solution into their own mouths by transfer pipet, dispersed the solution by moving their tongues, and recorded an SEV value for each solution based on comparison to the 1%, 2%, 3%, 4%, 5%, 6%, 7%, 8%, 9%, 10%, 11%, 12%, 13%, and 14% sucrose solutions. Between tasting solutions, the panelists were able to cleanse their palates with water. […] For this example, the panelists focused on and only recorded the sweetness intensity in SEV that they tasted while disregarding other attributes of the solution. At the highest concentrations of steviol glycoside and sensory modifier compound, the panelists found other attributes to be highly noticeable, but recorded the isolated sweetness intensity for each solution despite these other attributes.

[3] = Roundtable assessment of off taste (scale 0 to 6); parameters: key: 0 = none; 1 = trace/faint; 2 = slight; 3 = moderate; 4 = definite; 5 = strong; 6 = extreme
[4] = Roundtable assessment of bitterness (scale 0 to 6); parameters: key: 0 = none; 1 = trace/faint; 2 = slight; 3 = moderate; 4 = definite; 5 = strong; 6 = extreme
[5] = steviol glycoside 700 ppm + yerba mate mono/dicaffeoylquinic acids 810 ppm
[6] = steviol glycoside 700 ppm, sensory modifier 0 ppm
[7] = RebM 700 ppm + cichoric acid (tartaric backbone) 514 ppm
[8] = RebM 700 ppm + cichoric acid (tartaric backbone) 772 ppm
[9] = RebM 700 ppm + rosmarinic acid 391 ppm
[10] = RebM 700 ppm + rosmarinic acid 586 ppm
[11] = steviol glycoside 700 ppm + yerba mate mono/dicaffeoylquinic acids 630 ppm
[12] = steviol glycoside 700 ppm + yerba mate mono/dicaffeoylquinic acids 946 ppm
[13] = steviol glycoside 700 ppm + yerba mate mono/dicaffeoylquinic acids […]

For C=C1C[C@@]23CC[C@H]4[C@@](C)(CCC[C@@]4(C)C(=O)O[C@@H]4O[C@H](CO)[C@@H](O)[C@H](O)[C@H]4O[C@@H]4O[C@H](CO)[C@@H](O)[C@H](O)[C@H]4O)[C@@H]2CC[C@]1(O[C@@H]1O[C@H](CO)[C@@H](O)[C@H](O[C@@H]2O[C@H](CO)[C@@H](O)[C@H](O)[C@H]2O)[C@H]1O[C@@H]1O[C@H](CO)[C@@H](O)[C@H](O)[C@H]1O)C3 [RebD, Rebaudioside D], the Mouthfeel [1, 5] was “Not noted by panel”, the SEV ([2]; steviol glycoside 700 ppm + yerba mate mono/dicaffeoylquinic acids 270 ppm) was 8.5 and the SEV ([2]; steviol glycoside 700 ppm + yerba mate mono/dicaffeoylquinic acids 540 ppm) was 8.5. For the same molecule, the SEV [2, 5] was 8.5 and the SEV [2, 6] was 8.
Molecule C=C1C[C@@]23CC[C@H]4[C@@](C)(CCC[C@@]4(C)C(=O)O[C@@H]4O[C@H](CO)[C@@H](O)[C@H](O[C@@H]5O[C@H](CO)[C@@H](O)[C@H](O)[C@H]5O)[C@H]4O[C@@H]4O[C@H](CO)[C@@H](O)[C@H](O)[C@H]4O)[C@@H]2CC[C@]1(O[C@@H]1O[C@H](CO)[C@@H](O)[C@H](O[C@@H]2O[C@H](CO)[C@@H](O)[C@H](O)[C@H]2O)[C@H]1O[C@@H]1O[C@H](CO)[C@@H](O)[C@H](O)[C@H]1O)C3 [RebM, Rebaudioside M] has an Off taste [3, 7] of 0, an Off taste [3, 8] of 0 and an Off taste [3, 9] of 2. The Bitterness [4, 7] was 0, the Bitterness [4, 10] was 0 and the “sweetness intensity plateau (SEV)” value ([2]; listed as Reb M) was “about 11”. The “sweetness intensity plateau (SEV)” value ([2]; listed as rebaudioside M) was about 11, the SEV ([2]; RebM 100 ppm + yerba mate mono/dicaffeoylquinic acids 100 ppm (1:1)) was 3.5 and the SEV ([2]; RebM 100 ppm, no sensory modifier) was 3.25. The SEV ([2]; RebM 200 ppm + yerba mate mono/dicaffeoylquinic acids 200 ppm (1:1)) was 6, the SEV ([2]; RebM 200 ppm, no sensory modifier) was 4.5 and the SEV ([2]; RebM 300 ppm + yerba mate mono/dicaffeoylquinic acids 300 ppm (1:1)) was 7.5. The SEV ([2]; RebM 300 ppm, no sensory modifier) was 5.75, the SEV ([2]; RebM 400 ppm + yerba mate mono/dicaffeoylquinic acids 400 ppm (1:1)) was 8.5 and the SEV ([2]; RebM 400 ppm, no sensory modifier) was 7.75. The SEV ([2]; RebM 500 ppm + yerba mate mono/dicaffeoylquinic acids 500 ppm (1:1)) was 9.25, the SEV ([2]; RebM 500 ppm, no sensory modifier) was 9 and the SEV ([2]; RebM 600 ppm + yerba mate mono/dicaffeoylquinic acids 600 ppm (1:1)) was 10. It also gave an SEV ([2]; RebM 600 ppm, no sensory modifier) of 9.5, an SEV [2, 7] of 10 and an SEV [2, 8] of 9. For the same molecule, the SEV ([2]; RebM 700 ppm + cichoric acid (tartaric backbone) […]) was 10, the SEV ([2]; RebM 700 ppm + rosmarinic acid 195 ppm) was 10.5 and the SEV [2, 9] was 10.25. For the same molecule, the SEV [2, 10] was 10.25, the SEV ([2]; RebM 700 ppm + yerba mate mono/dicaffeoylquinic acids 700 ppm (1:1)) was 10.5 and the SEV ([2]; RebM 700 ppm, no sensory modifier) was 10.5. The SEV ([2]; RebM 800 ppm + yerba mate mono/dicaffeoylquinic acids 800 ppm (1:1)) was 10.5, the SEV ([2]; RebM 800 ppm, no sensory modifier) was 10.75 and the SEV ([2]; RebM 900 ppm + yerba mate mono/dicaffeoylquinic acids 900 ppm (1:1)) was 11. For the same molecule, the SEV ([2]; RebM 900 ppm, no sensory modifier) was 11, the SEV ([2]; RebM 1000 ppm + yerba mate mono/dicaffeoylquinic acids 1000 ppm (1:1)) was 11.5 and the SEV ([2]; RebM 1000 ppm, no sensory modifier) was 11. It also gave an SEV ([2]; RebM 1100 ppm + yerba mate mono/dicaffeoylquinic acids 1100 ppm (1:1)) of 12, an SEV ([2]; RebM 1100 ppm, no sensory modifier) of 11 and an SEV ([2]; RebM 1200 ppm + yerba mate mono/dicaffeoylquinic acids 1200 ppm (1:1)) of 12.25. It also gave an SEV ([2]; RebM 1200 ppm, no sensory modifier) of 11, an SEV ([2]; RebM 1300 ppm + yerba mate mono/dicaffeoylquinic acids 1300 ppm (1:1)) of 12.5 and an SEV ([2]; RebM 1400 ppm + yerba mate mono/dicaffeoylquinic acids 1400 ppm (1:1)) of 13. The SEV ([2]; RebM 1500 ppm + yerba mate mono/dicaffeoylquinic acids 1500 ppm (1:1)) was 13, the SEV ([2]; RebM 1600 ppm + yerba mate mono/dicaffeoylquinic acids 1600 ppm (1:1)) was 13 and the “sweetness intensity (SEV)” value ([2]; listed as Reb M) was “about 13”. For the same molecule, the “sweetness intensity (SEV)” value ([2]; listed as rebaudioside M) was about 13, the SEV ([2]; steviol glycoside 700 ppm + yerba mate mono/dicaffeoylquinic acids 236 ppm) was 10 and 10.5 and the SEV ([2]; steviol glycoside 700 ppm + yerba mate mono/dicaffeoylquinic acids 300 ppm) was 10.25. It also gave an SEV ([2]; steviol glycoside 700 ppm + yerba mate mono/dicaffeoylquinic acids 400 ppm) of 10.25, an SEV ([2]; steviol glycoside 700 ppm + yerba mate mono/dicaffeoylquinic acids 472 ppm) of 10 and an SEV ([2]; steviol glycoside 700 ppm + yerba mate mono/dicaffeoylquinic acids 500 ppm) of 10.00. For the same molecule, the SEV ([2]; steviol glycoside 700 ppm + yerba mate mono/dicaffeoylquinic acids 600 ppm) was 10.5, the SEV ([2]; steviol glycoside 700 ppm + yerba mate mono/dicaffeoylquinic acids 700 ppm) was 10.5 and 10 and the SEV ([2]; steviol glycoside 700 ppm + yerba mate mono/dicaffeoylquinic acids 708 ppm) was 10. For the same molecule, the SEV ([2]; steviol glycoside 700 ppm + yerba mate mono/dicaffeoylquinic acids 800 ppm) was 10.5 and the SEV [2, 6] was 10.5.
In the case of C=C1C[C@@]23CC[C@H]4[C@@](C)(CCC[C@@]4(C)C(=O)O[C@@H]4O[C@H](CO)[C@@H](O)[C@H](O)[C@H]4O)[C@@H]2CC[C@]1(O[C@@H]1O[C@H](CO)[C@@H](O)[C@H](O[C@@H]2O[C@H](CO)[C@@H](O)[C@H](O)[C@H]2O)[C@H]1O[C@@H]1O[C@H](CO)[C@@H](O)[C@H](O)[C@H]1O)C3 [RebA, Rebaudioside A], the Mouthfeel [1, 11] is reported as “Not noted by panel”, the Mouthfeel [1, 12] is reported as “Not noted by panel” and the Mouthfeel [1, 13] is reported as “Not noted by panel”. For the same molecule, the SEV [2, 11] was 7, the SEV [2, 12] was 7 and the SEV [2, 13] was 7. For the same molecule, the SEV [2, 6] was 7.
